pEC50, pKd: −log10 of the molar value.
What was measured:
LYCHOS (GPR155) = molecular target: T1, LYCHOS (GPR155) (Homo sapiens, UniProt Q7Z3F1); experiment: [3H]-cholesterol saturation binding, scintillation counting
T1 sequence (Q7Z3F1 1-870): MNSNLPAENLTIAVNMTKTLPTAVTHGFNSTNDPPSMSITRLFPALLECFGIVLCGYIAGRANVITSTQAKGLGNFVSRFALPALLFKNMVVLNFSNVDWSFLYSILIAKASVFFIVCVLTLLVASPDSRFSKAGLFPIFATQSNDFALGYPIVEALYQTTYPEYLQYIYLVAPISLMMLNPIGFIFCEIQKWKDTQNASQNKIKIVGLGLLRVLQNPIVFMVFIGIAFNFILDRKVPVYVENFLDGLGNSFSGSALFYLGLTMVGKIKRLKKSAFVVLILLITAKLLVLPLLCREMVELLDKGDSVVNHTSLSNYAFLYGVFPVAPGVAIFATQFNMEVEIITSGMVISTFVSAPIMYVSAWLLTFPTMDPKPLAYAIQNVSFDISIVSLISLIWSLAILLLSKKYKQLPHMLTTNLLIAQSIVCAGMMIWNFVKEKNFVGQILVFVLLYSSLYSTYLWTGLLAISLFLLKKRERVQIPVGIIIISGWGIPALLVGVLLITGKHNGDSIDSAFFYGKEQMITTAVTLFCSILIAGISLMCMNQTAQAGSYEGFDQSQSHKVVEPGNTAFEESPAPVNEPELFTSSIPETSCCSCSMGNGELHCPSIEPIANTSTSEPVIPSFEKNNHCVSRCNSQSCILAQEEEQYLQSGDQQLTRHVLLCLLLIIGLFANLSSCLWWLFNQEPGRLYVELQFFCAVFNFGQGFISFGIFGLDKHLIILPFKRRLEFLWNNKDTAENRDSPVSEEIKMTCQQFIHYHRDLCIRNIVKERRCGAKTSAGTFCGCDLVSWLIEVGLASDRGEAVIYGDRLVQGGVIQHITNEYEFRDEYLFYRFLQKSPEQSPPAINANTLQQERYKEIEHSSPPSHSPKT

LYCHOS-GATOR1 complex = LYCHOS-GATOR1 complex (Homo sapiens, UniProt Q7Z3F1); experiment: FLAG co-immunoprecipitation of GATOR1 with LYCHOS from cholesterol-refed cells; format: cell-based
Chain of LYCHOS-GATOR1 complex (O75140 whole entry partner, one chain of several): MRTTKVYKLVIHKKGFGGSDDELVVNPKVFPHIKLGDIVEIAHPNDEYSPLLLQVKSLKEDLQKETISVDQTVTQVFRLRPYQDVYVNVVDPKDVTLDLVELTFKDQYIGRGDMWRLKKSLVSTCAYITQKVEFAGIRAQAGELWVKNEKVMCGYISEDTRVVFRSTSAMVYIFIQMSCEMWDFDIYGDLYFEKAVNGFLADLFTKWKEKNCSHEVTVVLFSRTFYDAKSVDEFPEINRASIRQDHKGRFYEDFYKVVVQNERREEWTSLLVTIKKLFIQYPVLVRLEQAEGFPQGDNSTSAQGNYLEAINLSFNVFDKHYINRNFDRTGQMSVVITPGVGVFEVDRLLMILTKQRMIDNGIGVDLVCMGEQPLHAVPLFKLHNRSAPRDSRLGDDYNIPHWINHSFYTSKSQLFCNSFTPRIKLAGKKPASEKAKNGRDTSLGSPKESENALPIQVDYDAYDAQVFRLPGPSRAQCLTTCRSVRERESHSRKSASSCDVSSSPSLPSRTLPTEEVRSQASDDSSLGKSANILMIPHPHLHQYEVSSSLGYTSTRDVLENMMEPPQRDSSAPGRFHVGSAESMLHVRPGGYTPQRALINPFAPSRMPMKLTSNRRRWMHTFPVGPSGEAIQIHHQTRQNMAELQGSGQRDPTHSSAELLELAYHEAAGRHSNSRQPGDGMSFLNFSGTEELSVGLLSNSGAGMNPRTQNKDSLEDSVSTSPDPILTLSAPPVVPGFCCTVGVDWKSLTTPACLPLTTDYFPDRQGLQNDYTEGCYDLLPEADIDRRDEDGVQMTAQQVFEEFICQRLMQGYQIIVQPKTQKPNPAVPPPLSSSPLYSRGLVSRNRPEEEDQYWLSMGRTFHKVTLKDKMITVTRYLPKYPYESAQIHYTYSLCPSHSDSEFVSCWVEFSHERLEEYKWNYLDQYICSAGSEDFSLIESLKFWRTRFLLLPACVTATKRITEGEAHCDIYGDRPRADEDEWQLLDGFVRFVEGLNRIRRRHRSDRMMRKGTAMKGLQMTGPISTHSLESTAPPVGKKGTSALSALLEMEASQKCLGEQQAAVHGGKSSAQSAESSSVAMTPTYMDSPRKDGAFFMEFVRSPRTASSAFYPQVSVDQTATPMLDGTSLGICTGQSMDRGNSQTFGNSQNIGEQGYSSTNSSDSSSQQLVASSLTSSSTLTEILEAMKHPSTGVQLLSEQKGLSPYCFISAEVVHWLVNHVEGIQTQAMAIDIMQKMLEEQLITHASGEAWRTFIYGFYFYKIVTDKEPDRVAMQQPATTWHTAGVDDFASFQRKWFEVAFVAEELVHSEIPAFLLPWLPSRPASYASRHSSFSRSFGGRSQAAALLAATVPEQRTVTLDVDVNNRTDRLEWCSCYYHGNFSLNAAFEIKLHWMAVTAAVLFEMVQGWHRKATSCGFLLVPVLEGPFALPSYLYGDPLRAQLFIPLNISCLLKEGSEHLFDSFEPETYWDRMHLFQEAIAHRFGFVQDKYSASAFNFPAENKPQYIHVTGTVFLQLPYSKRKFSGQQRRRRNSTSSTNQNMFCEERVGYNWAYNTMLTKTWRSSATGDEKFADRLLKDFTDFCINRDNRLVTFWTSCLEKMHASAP
Chain of LYCHOS-GATOR1 complex (Q8WTW4 whole entry partner, one chain of several): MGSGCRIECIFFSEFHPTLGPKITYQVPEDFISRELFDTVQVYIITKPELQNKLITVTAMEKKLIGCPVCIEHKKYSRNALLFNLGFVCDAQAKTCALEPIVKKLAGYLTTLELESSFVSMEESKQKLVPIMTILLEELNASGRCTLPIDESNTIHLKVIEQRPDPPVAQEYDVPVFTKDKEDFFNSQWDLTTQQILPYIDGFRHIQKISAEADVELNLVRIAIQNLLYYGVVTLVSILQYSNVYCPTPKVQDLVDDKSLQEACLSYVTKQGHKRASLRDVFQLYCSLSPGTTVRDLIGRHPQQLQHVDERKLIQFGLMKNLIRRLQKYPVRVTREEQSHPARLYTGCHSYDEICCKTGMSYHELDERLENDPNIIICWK
Chain of LYCHOS-GATOR1 complex (Q12980 whole entry partner, one chain of several): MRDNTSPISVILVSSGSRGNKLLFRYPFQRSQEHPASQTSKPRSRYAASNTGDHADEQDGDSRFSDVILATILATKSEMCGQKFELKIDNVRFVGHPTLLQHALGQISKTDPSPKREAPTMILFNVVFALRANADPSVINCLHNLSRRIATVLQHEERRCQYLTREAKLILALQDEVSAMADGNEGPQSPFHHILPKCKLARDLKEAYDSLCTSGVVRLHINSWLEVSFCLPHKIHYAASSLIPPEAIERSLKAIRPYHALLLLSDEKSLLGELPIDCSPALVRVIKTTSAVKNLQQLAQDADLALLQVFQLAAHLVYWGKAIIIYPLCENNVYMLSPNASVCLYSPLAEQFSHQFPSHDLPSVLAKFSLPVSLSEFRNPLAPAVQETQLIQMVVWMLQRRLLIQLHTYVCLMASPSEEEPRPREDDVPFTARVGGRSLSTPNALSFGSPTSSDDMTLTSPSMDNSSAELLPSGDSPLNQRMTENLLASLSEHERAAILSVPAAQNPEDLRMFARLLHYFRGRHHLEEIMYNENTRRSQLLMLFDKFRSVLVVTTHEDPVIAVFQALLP

A pKd (LYCHOS (GPR155)) of 6.70 to 7.00 and a pEC50 (LYCHOS-GATOR1 complex) of 4.50 were found for `CC(C)CCC[C@@H](C)[C@H]1CC[C@H]2[C@@H]3CC=C4C[C@@H](O)CC[C@]4(C)[C@H]3CC[C@]12C` [cholesterol] in this work.

— article PMC10023259 (Science (New York, N.Y.), 2022)
